Measurements published in ChEMBL document CHEMBL1250451, “Mechanistic insights into a Ca2+-dependent family of alpha-mannosidases in a human gut symbiont” (Nat Chem Biol, 2010).

Columns and labels:
Assay type in all cases: protein assay
[1] = molecular target: T1, Alpha-1,2-mannosidase (BT_2199) (Bacteroides thetaiotaomicron) (UniProt Q8A5N9); experiment: Activity of Bacteroides thetaiotaomicron GH92 alpha-mannosidase 2199 assessed as recovery of enzyme activity at 1 mM in presence of 7 mM Mg(2+) ions and in presence of 5 mM EGTA in 100 mM pH 7 MOPS buffer relative to enzyme activity in presence of calcium
T1 sequence (whole entry): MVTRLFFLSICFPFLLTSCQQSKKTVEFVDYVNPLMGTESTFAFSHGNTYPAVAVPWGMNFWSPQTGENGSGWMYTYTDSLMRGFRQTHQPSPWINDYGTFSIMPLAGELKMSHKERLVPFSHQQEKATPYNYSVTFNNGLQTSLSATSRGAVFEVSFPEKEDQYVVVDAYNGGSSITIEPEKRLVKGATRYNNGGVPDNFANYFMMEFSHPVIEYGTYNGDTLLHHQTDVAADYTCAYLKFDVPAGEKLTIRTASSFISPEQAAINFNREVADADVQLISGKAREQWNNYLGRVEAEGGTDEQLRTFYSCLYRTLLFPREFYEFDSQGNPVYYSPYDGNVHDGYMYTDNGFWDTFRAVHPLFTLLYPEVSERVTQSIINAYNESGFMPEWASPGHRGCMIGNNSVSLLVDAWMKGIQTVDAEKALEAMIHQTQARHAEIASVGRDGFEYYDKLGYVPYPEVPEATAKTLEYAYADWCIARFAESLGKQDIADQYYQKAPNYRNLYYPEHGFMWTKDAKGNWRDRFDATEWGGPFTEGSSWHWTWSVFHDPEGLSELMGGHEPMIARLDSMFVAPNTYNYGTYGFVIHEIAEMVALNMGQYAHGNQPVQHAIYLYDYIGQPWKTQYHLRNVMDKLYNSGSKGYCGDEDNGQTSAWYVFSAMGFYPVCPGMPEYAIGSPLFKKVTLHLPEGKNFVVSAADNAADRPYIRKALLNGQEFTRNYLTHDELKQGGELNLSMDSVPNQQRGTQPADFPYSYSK

[2] = molecular target: T2, Alpha-1,2-mannosidase (BT_3990) (Bacteroides thetaiotaomicron) (UniProt Q8A0N1); experiment: Activity of Bacteroides thetaiotaomicron GH92 alpha-mannosidase 3990 assessed as recovery of enzyme activity at 1 mM in presence of 7 mM Sr(2+) ions and in presence of 5 mM EGTA in 100 mM pH 7 MOPS buffer relative to enzyme activity in presence of calcium
T2 sequence (whole entry): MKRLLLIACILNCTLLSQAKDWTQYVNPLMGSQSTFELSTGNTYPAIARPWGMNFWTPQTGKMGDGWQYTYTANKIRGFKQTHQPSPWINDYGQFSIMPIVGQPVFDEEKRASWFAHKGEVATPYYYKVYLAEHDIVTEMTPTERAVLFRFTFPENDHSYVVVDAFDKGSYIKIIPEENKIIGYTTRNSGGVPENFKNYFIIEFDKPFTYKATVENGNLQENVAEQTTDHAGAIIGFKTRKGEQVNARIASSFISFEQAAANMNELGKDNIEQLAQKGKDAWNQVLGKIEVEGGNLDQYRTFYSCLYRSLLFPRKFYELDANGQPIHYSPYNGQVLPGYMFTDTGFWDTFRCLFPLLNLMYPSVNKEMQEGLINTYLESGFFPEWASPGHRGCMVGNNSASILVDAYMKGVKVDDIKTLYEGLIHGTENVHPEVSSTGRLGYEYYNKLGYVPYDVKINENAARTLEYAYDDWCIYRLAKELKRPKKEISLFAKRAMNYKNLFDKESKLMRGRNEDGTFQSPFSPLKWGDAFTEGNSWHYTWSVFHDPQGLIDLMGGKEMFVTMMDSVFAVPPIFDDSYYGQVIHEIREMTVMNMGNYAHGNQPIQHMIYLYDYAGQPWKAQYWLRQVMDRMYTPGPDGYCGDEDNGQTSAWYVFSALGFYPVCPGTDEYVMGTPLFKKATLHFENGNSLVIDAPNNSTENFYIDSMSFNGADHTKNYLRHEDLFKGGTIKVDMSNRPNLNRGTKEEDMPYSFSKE

[3] = molecular target: T1, Alpha-1,2-mannosidase (BT_2199) (Bacteroides thetaiotaomicron); experiment: Activity of Bacteroides thetaiotaomicron GH92 alpha-mannosidase 2199 assessed as recovery of enzyme activity at 1 mM in presence of 7 mM Co(2+) ions and in presence of 5 mM EDTA in 100 mM pH 7 MOPS buffer relative to enzyme activity in presence of calcium
[4] = molecular target: T1, Alpha-1,2-mannosidase (BT_2199) (Bacteroides thetaiotaomicron); experiment: Activity of Bacteroides thetaiotaomicron GH92 alpha-mannosidase 2199 assessed as recovery of enzyme activity at 1 mM in presence of 7 mM Sr(2+) ions and in presence of 5 mM EGTA in 100 mM pH 7 MOPS buffer relative to enzyme activity in presence of calcium
[5] = molecular target: T1, Alpha-1,2-mannosidase (BT_2199) (Bacteroides thetaiotaomicron); experiment: Activity of Bacteroides thetaiotaomicron GH92 alpha-mannosidase 2199 assessed as recovery of enzyme activity at 1 mM in presence of 7 mM Ba(2+) ions and in presence of 5 mM EGTA in 100 mM pH 7 MOPS buffer relative to enzyme activity in presence of calcium
[6] = molecular target: T2, Alpha-1,2-mannosidase (BT_3990) (Bacteroides thetaiotaomicron); experiment: Activity of Bacteroides thetaiotaomicron GH92 alpha-mannosidase 3990 assessed as recovery of enzyme activity at 1 mM in presence of 7 mM V(3+) ions and in presence of 5 mM EGTA in 100 mM pH 7 MOPS buffer relative to enzyme activity in presence of calcium
[7] = molecular target: T1, Alpha-1,2-mannosidase (BT_2199) (Bacteroides thetaiotaomicron); experiment: Activity of Bacteroides thetaiotaomicron GH92 alpha-mannosidase 2199 assessed as recovery of enzyme activity at 1 mM in presence of 7 mM V(3+) ions and in presence of 5 mM EGTA in 100 mM pH 7 MOPS buffer relative to enzyme activity in presence of calcium
[8] = molecular target: T1, Alpha-1,2-mannosidase (BT_2199) (Bacteroides thetaiotaomicron); experiment: Activity of Bacteroides thetaiotaomicron GH92 alpha-mannosidase 2199 assessed as recovery of enzyme activity at 1 mM in presence of 7 mM Ca(2+) ions and in presence of 5 mM EGTA in 100 mM pH 7 MOPS buffer relative to enzyme activity in presence of calcium
[9] = molecular target: T1, Alpha-1,2-mannosidase (BT_2199) (Bacteroides thetaiotaomicron); experiment: Activity of Bacteroides thetaiotaomicron GH92 alpha-mannosidase 2199 assessed as recovery of enzyme activity at 1 mM in presence of 7 mM Ca(2+) ions and in presence of 5 mM EDTA in 100 mM pH 7 MOPS buffer relative to enzyme activity in presence of calcium
[10] = molecular target: T2, Alpha-1,2-mannosidase (BT_3990) (Bacteroides thetaiotaomicron); experiment: Activity of Bacteroides thetaiotaomicron GH92 alpha-mannosidase 3990 assessed as recovery of enzyme activity at 1 mM in presence of 7 mM Be(2+) ions and in presence of 5 mM EDTA in 100 mM pH 7 MOPS buffer relative to enzyme activity in presence of calcium
[11] = molecular target: T2, Alpha-1,2-mannosidase (BT_3990) (Bacteroides thetaiotaomicron); experiment: Activity of Bacteroides thetaiotaomicron GH92 alpha-mannosidase 3990 assessed as recovery of enzyme activity at 1 mM in presence of 7 mM Mg(2+) ions and in presence of 5 mM EDTA in 100 mM pH 7 MOPS buffer relative to enzyme activity in presence of calcium
[12] = molecular target: T2, Alpha-1,2-mannosidase (BT_3990) (Bacteroides thetaiotaomicron); experiment: Activity of Bacteroides thetaiotaomicron GH92 alpha-mannosidase 3990 assessed as recovery of enzyme activity at 1 mM in absence of metal and in presence of 5 mM EGTA in 100 mM pH 7 MOPS buffer relative to enzyme activity in presence of calcium

O=[N+]([O-])c1ccc(O[C@H]2O[C@H](CO)[C@@H](O)[C@H](O)[C@@H]2O)cc1 gave an Activity [1] of 0%, an Activity [2] of 12% and an Activity [3] of 7%. The Activity [4] was 30%, the Activity [5] was 0% and the Activity [6] was 0%. The Activity [7] was 0%, the Activity [8] was 100% and the Activity [9] was 100%. It also gave an Activity [10] of 0%, an Activity [11] of 0% and an Activity [12] of 0%.
